Measurements taken from patent US12473304B2, “Heterocyclic PAD4 inhibitors” (BRISTOL-MYERS SQUIBB COMPANY, priority 2020, dated 2025).

Molecular target: human PAD4 (hPAD4) (Homo sapiens (Human), UniProt Q9UM07)
Experiment: RFMS Human PAD4 Functional Assay 1
Assay type: biochemical
Conditions: RFMS assay 1; 5 nM hPAD4, 250 μM BAEE substrate, 50 μM calcium, 37° C.
Procedure, shortened: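 Citrullination product read by RapidFire triple-quad MRM against a modified-citrulline internal standard, after TCA stop and 30 min phenyl glyoxal step at 37 °C. Reaction: 250 μM BAEE, 5 nM human PAD4, 90 min at 37 °C, pH 7.5 HEPES buffer with 50 μM calcium and 5 μM TPEN, following 30 min compound–enzyme preincubation (max 50 μM).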

Chain of human PAD4 (hPAD4) (Q9UM07 whole entry): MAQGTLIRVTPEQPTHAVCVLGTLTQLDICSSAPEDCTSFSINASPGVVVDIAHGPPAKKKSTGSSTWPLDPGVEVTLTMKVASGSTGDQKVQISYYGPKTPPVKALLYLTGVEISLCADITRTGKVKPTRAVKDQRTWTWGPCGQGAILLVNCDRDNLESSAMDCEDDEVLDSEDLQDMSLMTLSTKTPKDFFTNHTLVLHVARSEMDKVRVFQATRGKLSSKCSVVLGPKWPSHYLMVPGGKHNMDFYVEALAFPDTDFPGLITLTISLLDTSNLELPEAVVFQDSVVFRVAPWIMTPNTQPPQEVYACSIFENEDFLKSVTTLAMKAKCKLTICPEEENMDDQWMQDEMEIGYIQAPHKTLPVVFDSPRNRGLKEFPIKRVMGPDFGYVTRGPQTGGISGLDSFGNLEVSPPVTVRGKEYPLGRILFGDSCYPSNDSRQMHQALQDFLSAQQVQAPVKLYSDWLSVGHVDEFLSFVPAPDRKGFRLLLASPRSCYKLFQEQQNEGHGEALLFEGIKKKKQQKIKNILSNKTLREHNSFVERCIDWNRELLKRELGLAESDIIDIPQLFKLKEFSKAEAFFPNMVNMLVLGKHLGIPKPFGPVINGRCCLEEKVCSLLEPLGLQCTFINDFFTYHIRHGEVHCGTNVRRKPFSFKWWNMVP

Compound	IC50
COC1CN(c2ccc3cc(-c4nn5cc(C(=O)N6CC7CCC6[C@@H]7N)cc(F)c5c4C)n(CC4CC4)c3c2)C1 (stereo partly drawn) [Example 296, (7R)-2-{2-[1-(Cyclopropylmethyl)-6-(3-methoxyazetidin-1-yl)-1H-indol-2-yl]-4-fluoro-3-methylpyrazolo[1,5-a]pyridine-6-carbonyl}-2-azabicyclo[2.2.1]heptan-7-amine]	850 nM
Cc1c(-c2cc3ccc(-c4cccc5[nH]nc(F)c45)nc3n2CC2CC2)nn2cc(C(=O)N3CC4CCC3[C@@H]4N)ccc12 (stereo partly drawn) [Example 297, (7R)-2-{2-[1-(Cyclopropylmethyl)-6-(3-fluoro-1H-indazol-4-yl)-1H-pyrrolo[2,3-b]pyridin-2-yl]-3-methylpyrazolo[1,5-a]pyridine-6-carbonyl}-2-azabicyclo[2.2.1]heptan-7-amine]	190 nM
Cc1c(-c2cc3ccc(-c4ccc5cn[nH]c5c4)nc3n2CC2CC2)nn2cc(C(=O)N3CC4CCC3[C@@H]4N)ccc12 (stereo partly drawn) [Example 298, (7R)-2-{2-[1-(Cyclopropylmethyl)-6-(1H-indazol-6-yl)-1H-pyrrolo[2,3-b]pyridin-2-yl]-3-methylpyrazolo[1,5-a]pyridine-6-carbonyl}-2-azabicyclo[2.2.1]heptan-7-amine]	210 nM
Cc1c(-c2cc3ccc(-c4cccc5[nH]ncc45)nc3n2CC2CC2)nn2cc(C(=O)N3CC4CCC3[C@@H]4N)ccc12 (stereo partly drawn) [Example 299, (7R)-2-{2-[1-(Cyclopropylmethyl)-6-(1H-indazol-4-yl)-1H-pyrrolo[2,3-b]pyridin-2-yl]-3-methylpyrazolo[1,5-a]pyridine-6-carbonyl}-2-azabicyclo[2.2.1]heptan-7-amine]	20 nM
Cc1c(-c2cc3ccc(-c4ccc5[nH]ncc5c4)nc3n2CC2CC2)nn2cc(C(=O)N3CC4CCC3[C@@H]4N)ccc12 (stereo partly drawn) [Example 300, (7R)-2-{2-[1-(Cyclopropylmethyl)-6-(1H-indazol-5-yl)-1H-pyrrolo[2,3-b]pyridin-2-yl]-3-methylpyrazolo[1,5-a]pyridine-6-carbonyl}-2-azabicyclo[2.2.1]heptan-7-amine]	100 nM
Cc1c(O)cccc1-c1ccc2cc(-c3nn4cc(C(=O)N5CC6CCC5[C@@H]6N)ccc4c3C)n(CC3CC3)c2n1 (stereo partly drawn) [Example 301, 3-(2-{6-[(7R)-7-Amino-2-azabicyclo[2.2.1]heptane-2-carbonyl]-3-methylpyrazolo[1,5-a]pyridin-2-yl}-1-(cyclopropylmethyl)-1H-pyrrolo[2,3-b]pyridin-6-yl)-2-methylphenol]	30 nM
Cc1c(-c2cc3ccc(-c4ccccc4N4CCNC4=O)nc3n2CC2CC2)nn2cc(C(=O)N3CC4CCC3[C@@H]4N)ccc12 (stereo partly drawn) [Example 302, 1-[2-(2-{6-[(7R)-7-Amino-2-azabicyclo[2.2.1]heptane-2-carbonyl]-3-methylpyrazolo[1,5-a]pyridin-2-yl}-1-(cyclopropylmethyl)-1H-pyrrolo[2,3-b]pyridin-6-yl)phenyl]imidazolidin-2-one]	120 nM
COc1cc(-c2ccc3cc(-c4nn5cc(C(=O)N6CC7CCC6[C@@H]7N)ccc5c4C)n(CC4CC4)c3n2)ccc1C(N)=O (stereo partly drawn) [Example 303, 4-(2-{6-[(7R)-7-Amino-2-azabicyclo[2.2.1]heptane-2-carbonyl]-3-methylpyrazolo[1,5-a]pyridin-2-yl}-1-(cyclopropylmethyl)-1H-pyrrolo[2,3-b]pyridin-6-yl)-2-methoxybenzamide]	240 nM
Cc1c(-c2cc3ccc(-c4ccc(N5CCCC5=O)cc4)nc3n2CC2CC2)nn2cc(C(=O)N3CC4CCC3[C@@H]4N)ccc12 (stereo partly drawn) [Example 304, 1-[4-(2-{6-[(7R)-7-Amino-2-azabicyclo[2.2.1]heptane-2-carbonyl]-3-methylpyrazolo[1,5-a]pyridin-2-yl}-1-(cyclopropylmethyl)-1H-pyrrolo[2,3-b]pyridin-6-yl)phenyl]pyrrolidin-2-one]	10 nM
Cc1cc(C(N)=O)c(F)cc1-c1ccc2cc(-c3nn4cc(C(=O)N5CC6CCC5[C@@H]6N)ccc4c3C)n(CC3CC3)c2n1 (stereo partly drawn) [Example 305, 4-(2-{6-[(7R)-7-Amino-2-azabicyclo[2.2.1]heptane-2-carbonyl]-3-methylpyrazolo[1,5-a]pyridin-2-yl}-1-(cyclopropylmethyl)-1H-pyrrolo[2,3-b]pyridin-6-yl)-2-fluoro-5-methylbenzamide]	40 nM
Cc1c(-c2cc3ccc(-c4ccc5cn[nH]c5c4F)nc3n2CC2CC2)nn2cc(C(=O)N3CC4CCC3[C@@H]4N)ccc12 (stereo partly drawn) [Example 306, (7R)-2-{2-[1-(Cyclopropylmethyl)-6-(7-fluoro-1H-indazol-6-yl)-1H-pyrrolo[2,3-b]pyridin-2-yl]-3-methylpyrazolo[1,5-a]pyridine-6-carbonyl}-2-azabicyclo[2.2.1]heptan-7-amine]	30 nM
CNC(=O)c1ccc(-c2ccc3cc(-c4nn5cc(C(=O)N6CC7CCC6[C@@H]7N)ccc5c4C)n(CC4CC4)c3n2)cn1 (stereo partly drawn) [Example 307, 5-(2-{6-[(7R)-7-Amino-2-azabicyclo[2.2.1]heptane-2-carbonyl]-3-methylpyrazolo[1,5-a]pyridin-2-yl}-1-(cyclopropylmethyl)-1H-pyrrolo[2,3-b]pyridin-6-yl)-N-methylpyridine-2-carboxamide]	70 nM
COC(=O)Nc1ccc(-c2ccc3cc(-c4nn5cc(C(=O)N6CC7CCC6[C@@H]7N)ccc5c4C)n(CC4CC4)c3n2)cn1 (stereo partly drawn) [Example 308, Methyl N-[5-(2-{6-[(7R)-7-amino-2-azabicyclo[2.2.1]heptane-2-carbonyl]-3-methylpyrazolo[1,5-a]pyridin-2-yl}-1-(cyclopropylmethyl)-1H-pyrrolo[2,3-b]pyridin-6-yl)pyridin-2-yl]carbamate]	50 nM
Cc1c(-c2cc3ccc(-c4ccc5[nH]ncc5c4)nc3n2CC2CC2)nn2cc(C(=O)N3CCC[C@@H](N)C3)ccc12 [Example 309, (3R)-1-{2-[1-(Cyclopropylmethyl)-6-(1H-indazol-5-yl)-1H-pyrrolo[2,3-b]pyridin-2-yl]-3-methylpyrazolo[1,5-a]pyridine-6-carbonyl}piperidin-3-amine]	400 nM
Cc1c(-c2cc3ccc(-c4ccc5cn[nH]c5c4)nc3n2CC2CC2)nn2cc(C(=O)N3CCC[C@@H](N)C3)ccc12 [Example 310, (3R)-1-{2-[1-(Cyclopropylmethyl)-6-(1H-indazol-6-yl)-1H-pyrrolo[2,3-b]pyridin-2-yl]-3-methylpyrazolo[1,5-a]pyridine-6-carbonyl}piperidin-3-amine]	400 nM
Cc1c(-c2cc3ccc(-c4cccc5[nH]ncc45)nc3n2CC2CC2)nn2cc(C(=O)N3CCC[C@@H](N)C3)ccc12 [Example 311, (3R)-1-{2-[1-(Cyclopropylmethyl)-6-(1H-indazol-4-yl)-1H-pyrrolo[2,3-b]pyridin-2-yl]-3-methylpyrazolo[1,5-a]pyridine-6-carbonyl}piperidin-3-amine]	210 nM
Cc1c(-c2ccc3cc(-c4nn5cc(C(=O)N6CCC[C@@H](N)C6)ccc5c4C)n(CC4CC4)c3n2)cc(F)c2[nH]c(=O)ccc12 [Example 312, 6-(2-{6-[(3R)-3-Aminopiperidine-1-carbonyl]-3-methylpyrazolo[1,5-a]pyridin-2-yl}-1-(cyclopropylmethyl)-1H-pyrrolo[2,3-b]pyridin-6-yl)-8-fluoro-5-methyl-1,2-dihydroquinolin-2-one]	60 nM
